Experiment [1] deals with T1, Alpha-1A adrenergic receptor (Rattus norvegicus, UniProt P43140).
T1 sequence (P43140 whole entry): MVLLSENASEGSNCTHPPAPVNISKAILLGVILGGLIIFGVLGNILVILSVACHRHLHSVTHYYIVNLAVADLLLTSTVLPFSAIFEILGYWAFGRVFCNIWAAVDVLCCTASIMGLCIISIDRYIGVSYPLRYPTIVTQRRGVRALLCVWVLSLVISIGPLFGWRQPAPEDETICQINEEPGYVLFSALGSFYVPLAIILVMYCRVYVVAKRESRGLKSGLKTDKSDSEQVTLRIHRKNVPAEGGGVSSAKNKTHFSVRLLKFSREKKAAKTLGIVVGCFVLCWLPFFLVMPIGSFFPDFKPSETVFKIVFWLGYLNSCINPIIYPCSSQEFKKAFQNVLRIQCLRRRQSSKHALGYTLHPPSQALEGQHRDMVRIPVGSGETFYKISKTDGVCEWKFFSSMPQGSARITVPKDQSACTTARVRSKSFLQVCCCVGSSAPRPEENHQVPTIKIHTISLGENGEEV
The experiment in a line: Displacement of [3H]prazosin from adrenergic alpha-1A receptor in rat submaxillary gland membranes. The experiment is classed as cell membranes, Membrane. For orientation: Displacement assays read how much labelled ligand stays bound in the presence of the test substance.

In experiment [2] the target is T2, Alpha-1B adrenergic receptor (Rattus norvegicus, UniProt P15823).
T2 sequence (P15823 whole entry): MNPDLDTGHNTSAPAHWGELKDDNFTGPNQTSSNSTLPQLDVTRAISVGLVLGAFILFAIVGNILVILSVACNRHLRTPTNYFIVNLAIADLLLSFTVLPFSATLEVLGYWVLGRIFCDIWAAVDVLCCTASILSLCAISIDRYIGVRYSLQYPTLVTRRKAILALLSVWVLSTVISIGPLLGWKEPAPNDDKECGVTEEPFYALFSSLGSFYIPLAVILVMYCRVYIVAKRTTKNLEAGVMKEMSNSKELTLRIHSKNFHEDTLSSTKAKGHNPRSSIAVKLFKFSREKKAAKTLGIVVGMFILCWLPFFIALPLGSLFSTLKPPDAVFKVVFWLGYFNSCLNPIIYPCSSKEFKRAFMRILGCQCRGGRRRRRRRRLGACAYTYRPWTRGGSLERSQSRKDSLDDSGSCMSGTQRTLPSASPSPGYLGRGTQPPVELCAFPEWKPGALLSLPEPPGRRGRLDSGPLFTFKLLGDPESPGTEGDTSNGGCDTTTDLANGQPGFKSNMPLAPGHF
Nature of the experiment: Displacement of [3H]prazosin from adrenergic alpha-1B receptor in rat liver membranes. The experiment is classed as cell membranes, Membrane.

The next experiment concerns the target Adrenergic receptor beta (Rattus norvegicus, UniProt P18090+P10608+P26255). The experiment in a line: Binding affinity to rat adrenergic beta receptor. Type of experiment: protein assay.
For experiment [3], the target named is T3, Adrenergic receptor alpha-2 (Rattus norvegicus, UniProt P22086+P19328+P22909).
T3 sequence (P22086 whole entry): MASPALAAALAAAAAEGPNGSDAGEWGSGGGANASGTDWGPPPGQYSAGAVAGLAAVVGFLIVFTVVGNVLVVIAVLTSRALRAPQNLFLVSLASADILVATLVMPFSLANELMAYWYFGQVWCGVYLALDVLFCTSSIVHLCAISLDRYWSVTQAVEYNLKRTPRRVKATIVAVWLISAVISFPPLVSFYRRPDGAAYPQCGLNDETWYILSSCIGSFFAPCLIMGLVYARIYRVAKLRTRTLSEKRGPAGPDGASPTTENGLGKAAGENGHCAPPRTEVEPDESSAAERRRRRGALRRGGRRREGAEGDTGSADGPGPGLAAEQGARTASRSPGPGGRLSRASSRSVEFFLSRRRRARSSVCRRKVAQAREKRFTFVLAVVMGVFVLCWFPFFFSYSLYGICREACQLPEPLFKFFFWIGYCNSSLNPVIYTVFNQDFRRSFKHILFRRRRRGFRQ
T3 sequence (P19328 whole entry): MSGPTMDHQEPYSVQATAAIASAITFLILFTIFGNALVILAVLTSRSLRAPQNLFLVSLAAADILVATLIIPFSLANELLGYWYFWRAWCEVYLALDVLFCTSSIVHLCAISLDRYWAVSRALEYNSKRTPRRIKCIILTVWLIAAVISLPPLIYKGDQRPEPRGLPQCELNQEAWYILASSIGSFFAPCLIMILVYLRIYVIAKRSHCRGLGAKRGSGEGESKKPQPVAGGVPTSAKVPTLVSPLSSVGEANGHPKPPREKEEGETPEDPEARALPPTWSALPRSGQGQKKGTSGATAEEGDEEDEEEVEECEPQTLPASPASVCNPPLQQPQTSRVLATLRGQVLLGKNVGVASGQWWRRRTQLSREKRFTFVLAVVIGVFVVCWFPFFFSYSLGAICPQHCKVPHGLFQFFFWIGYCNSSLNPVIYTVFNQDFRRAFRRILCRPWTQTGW
T3 sequence (P22909 whole entry): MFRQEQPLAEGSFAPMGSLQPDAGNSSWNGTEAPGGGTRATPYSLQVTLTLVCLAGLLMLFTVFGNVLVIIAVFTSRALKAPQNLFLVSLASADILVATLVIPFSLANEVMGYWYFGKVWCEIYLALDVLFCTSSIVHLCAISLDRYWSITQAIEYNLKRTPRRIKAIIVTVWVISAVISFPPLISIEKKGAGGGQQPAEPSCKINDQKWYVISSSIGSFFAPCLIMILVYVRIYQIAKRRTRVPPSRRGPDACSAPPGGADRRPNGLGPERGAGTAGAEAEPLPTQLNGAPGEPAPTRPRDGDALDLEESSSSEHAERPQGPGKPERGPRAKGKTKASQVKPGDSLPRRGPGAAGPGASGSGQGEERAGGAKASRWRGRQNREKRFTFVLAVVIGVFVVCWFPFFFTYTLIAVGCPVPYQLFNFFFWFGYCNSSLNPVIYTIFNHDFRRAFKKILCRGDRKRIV
Nature of the experiment: Binding affinity to rat adrenergic alpha2 receptor. The experiment is classed as protein assay.

For experiment [4], the target named is T4, Alpha-1D adrenergic receptor (Homo sapiens, UniProt P25100).
T4 sequence (P25100 whole entry): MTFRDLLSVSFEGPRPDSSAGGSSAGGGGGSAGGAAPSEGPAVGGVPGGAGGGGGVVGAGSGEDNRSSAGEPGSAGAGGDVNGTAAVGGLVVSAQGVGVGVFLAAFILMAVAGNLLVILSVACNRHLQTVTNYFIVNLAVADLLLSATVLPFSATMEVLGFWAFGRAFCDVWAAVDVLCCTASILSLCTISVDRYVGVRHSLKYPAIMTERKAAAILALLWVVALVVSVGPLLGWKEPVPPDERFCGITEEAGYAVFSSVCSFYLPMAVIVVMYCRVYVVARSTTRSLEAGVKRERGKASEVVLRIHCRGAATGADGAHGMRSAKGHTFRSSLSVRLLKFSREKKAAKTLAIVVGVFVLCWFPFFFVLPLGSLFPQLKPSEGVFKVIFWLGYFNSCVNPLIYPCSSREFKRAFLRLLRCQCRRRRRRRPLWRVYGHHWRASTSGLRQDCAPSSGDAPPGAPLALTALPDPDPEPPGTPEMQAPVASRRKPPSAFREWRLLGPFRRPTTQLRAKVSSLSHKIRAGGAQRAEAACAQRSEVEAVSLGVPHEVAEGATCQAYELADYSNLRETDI
Nature of the experiment: Binding affinity to human adrenergic Alpha-1D receptor.

Take `c1ccc2c(C3CCN(CCCCN4CCCCC4)CC3)c[nH]c2c1`: the Ki was determined as 56 nM in experiment [1] and 1.1 nM in experiment [2].
In the same order, the values of `c1ccc2c(C3CCN(CCCN4CCCCC4)CC3)noc2c1` are 57 nM and 14 nM.
For the compound `Cl.Cl.c1ccc2c(C3CCN(CCCN4CCCCC4)CC3)c[nH]c2c1`, the Ki is greater than 1000 nM on Adrenergic receptor beta; 370 nM in experiment [3]; 120 nM in experiment [1]; 3 nM in experiment [2]; 69 nM in experiment [4].
`Oc1nc2ccccc2n1C1CCN(CCCN2CCCCC2)CC1`: the Ki in experiment [1] was found to be 900 nM; in experiment [2], 70 nM.
Consider `Fc1ccc2[nH]cc(C3CCN(CCCN4CCCCC4)CC3)c2c1`, for which the results for the Ki in experiment [1] and in experiment [2] were 690 nM and 16 nM, respectively.
The compound `c1ccc(CC2CCN(CCCN3CCCCC3)CC2)cc1` gave a Ki in experiment [2] of 1120 nM.
For `Cn1cc(C2CCN(CCCN3CCCCC3)CC2)c2ccccc21`, the Ki in experiment [1] turned out to be 480 nM; in experiment [2] it was 60 nM.
In the same order, the values of `c1ccc2c(C3CCN(CCCN4CCCCC4)CC3)coc2c1` are 60 nM and 7.7 nM.
With `Cl.Cl.c1ccc2c(C3CCN(CCCCCN4CCCCC4)CC3)c[nH]c2c1`, the figures for the Ki (on Adrenergic receptor beta; in experiment [3]; in experiment [4]) were greater than 1000 nM, 355 nM and 37 nM, respectively.
On to `Cc1[nH]c2ccccc2c1C1CCN(CCCN2CCCCC2)CC1`, for which the Ki in experiment [1] turned out to be 1900 nM; in experiment [2] it was 71 nM.
Take `Cl.Cl.Fc1ccc2c(C3CCN(CCCN4CCCCC4)CC3)c[nH]c2c1`: the figures for the Ki (on Adrenergic receptor beta; in experiment [3]; in experiment [4]) were greater than 1000 nM, 140 nM and 22 nM, respectively.

Usually Ki stands for the equilibrium dissociation constant of an inhibitor or competing ligand from its target. A high value points to a looser hold on the target.

These data come from ChEMBL document CHEMBL1146014, “Design and synthesis of selective alpha1B adrenoceptor antagonists” (Bioorg Med Chem Lett, 2006).
